Read-outs that look alike come from different tables or passages of the source.
Experiments:
HCV 1a Y93H replicon = assay: Cell-based HCV replicon assay (TaqMan), 1a Y93H mutant replicon; conditions: EC90 = concentration for ΔCT=3.2 over baseline
Description: (§1) Measurement of inhibition by compounds of the present invention was performed using the HCV replicon system. Several different replicons encoding different HCV genotypes or mutations were used. In addition, potency measurements were made using different formats of the replicon assay, including different ways of measurements and different plating formats. See Jan M. Vrolijk et al., A replicons-based bioassay for the measurement of interferons in patients with chronic hepatitis C, 110 J. VIROLOGICAL METHODS 201 (2003); Steven S. Carroll et al., Inhibition of Hepatitis C Virus RNA Replication by 2′-Modified Nucleoside Analogs, 278(14) J. BIOLOGICAL CHEMISTRY 11979 (2003). However, the underlying principles are common to all of these determinations, and are outlined below.
(§2) TaqMan®-Based Assay Protocol:
(§3) Compounds of the present invention were assayed for cell-based anti-HCV activity using the following protocol. Replicon cells were seeded at 5000 cells/well in 96-well collagen I-coated Nunc plates in the presence of the test compound. Various concentrations of test compound, typically in 10 serial 2-fold dilutions, were added to the assay mixture, with the starting concentration ranging from 250 μM to 1 μM. The final concentration of DMSO was 0.5%, fetal bovine serum was 5%, in the assay media. Cells were harvested on day 3 by the addition of 1× cell lysis buffer (Ambion cat #8721). The replicon RNA level was measured using real time PCR (TaqMan® assay). The amplicon was located in 5B. The PCR primers were: 5B.2F, ATGGACAGGCGCCCTGA (SEQ. ID NO. 1); 5B.2R, […] (SEQ. ID NO. 2); the probe sequence was FAM-labeled CACGCCATGCGCTGCGG (SEQ. ID NO. 3). GAPDH RNA was used as endogenous control and was amplified in the same reaction as NS5B (multiplex PCR) using primers and VIC-labeled probe recommended by the manufacturer (PE Applied Biosystem). The real-time […] reactions were run on ABI PRISM 7900HT Sequence Detection System using the following program: 48° C. for 30 minutes, 95° C. for 10 minutes, 40 cycles of 95° C. for 15 sec, 60° C. for 1 minute. The ΔCT values (CT5B-CTGAPDH) were plotted against the concentration of test compound and fitted to the sigmoid dose-response model using XLfit4 (MDL). EC50 was defined as the concentration of inhibitor necessary to achieve ΔCT=1 over the projected baseline; EC90 the concentration necessary to achieve ΔCT=3.2 over the baseline. Alternatively, to quantitate the absolute amount of replicon RNA, a standard curve was established by including serially diluted T7 transcripts of replicon RNA in the Taqman assay. All TaqMan® reagents were from PE Applied Biosystems. Such an assay procedure was described in detail in e.g. Malcolm et al., Antimicrobial Agents and Chemotherapy 50: 1013-1020 (2006).
(§4) HCV replicon EC50 assay data for various replicons and mutants was calculated for selected compounds of the present invention using this method and is provided in the tables above herein.

HCV 1b replicon = assay: Cell-based HCV replicon assay (TaqMan), genotype 1b replicon; conditions: HCV genotype 1b replicon cells, replicon RNA by real time PCR, day 3, EC90 = concentration for ΔCT=3.2 over baseline
Description: as §1, §2, §3, §4

HCV 1a replicon = assay: Cell-based HCV replicon assay (TaqMan), genotype 1a replicon; conditions: HCV genotype 1a replicon cells, replicon RNA by real time PCR, day 3, EC90 = concentration for ΔCT=3.2 over baseline
Description: as §1, §2, §3, §4

HCV 2b replicon = assay: Cell-based HCV replicon assay (TaqMan), genotype 2b replicon; conditions: Hepatitis C virus, 72 h, read-out: 2b EC90, HCV genotype 2b replicon cells, replicon RNA by real time PCR, day 3; EC90 = concentration for ΔCT=3.2 over baseline
Description: as §1, §2, §3, §4

[1] = Hepatitis C virus, 72 h, read-out: 1a Y93H EC90, HCV 1a Y93H mutant replicon cells, replicon RNA by real time PCR, day 3

Row | Compound | EC90 (HCV 1a Y93H replicon; [1]) | EC90 (HCV 1b replicon; Hepatitis C virus, 72 h) | EC90 (HCV 1a replicon; Hepatitis C virus, 72 h) | EC90 (HCV 1a Y93H replicon; read-out: 1a Y93H EC90, HCV 1a Y93H mutant replicon cells, replicon RNA by real time PCR, day 3) | EC90 (HCV 1b replicon) | EC90 (HCV 1a replicon) | EC90 (HCV 2b replicon)
1 | COC(=O)N[C@H](C(=O)N1C[Si](C)(C)C[C@H]1c1ncc(-c2ccc(-c3ccc4c(ccc5nc([C@@H]6CCCN6C(=O)[C@@H](NC(=O)OC)C(C)C)[nH]c54)c3)cc2)[nH]1)C(C)C [Compound 3] | 280 nM | 0.006 nM | 0.031 nM |  |  |  | 
2 | COC(=O)N[C@H](C(=O)N1C[Si](C)(C)C[C@H]1c1ncc(-c2ccc(-c3ccc4c(ccc5[nH]c([C@@H]6[C@H]7CC[C@H](C7)N6C(=O)[C@@H](NC(=O)OC)C(C)C)nc54)c3)cc2)[nH]1)C(C)C [Compound 4] | 333 nM | 0.005 nM | 0.097 nM |  |  |  | 
3 | COC(=O)N[C@H](C(=O)N1CCC[C@H]1c1ncc(-c2ccc(-c3ccc4c(ccc5nc([C@@H]6C[Si](C)(C)CN6C(=O)[C@@H](NC(=O)OC)C(C)C)[nH]c54)c3)cc2)[nH]1)C(C)C [Compound 5] | 181 nM | 0.006 nM | 0.012 nM |  |  |  | 
4 | COC(=O)N[C@H](C(=O)N1C[Si](C)(C)C[C@H]1c1nc2ccc3cc(-c4ccc(-c5cnc([C@@H]6[C@H]7CC[C@H](C7)N6C(=O)[C@@H](NC(=O)OC)C(C)C)[nH]5)cc4)ccc3c2[nH]1)C(C)C [Compound 6] | 404 nM | 0.02 nM | 0.17 nM |  |  |  | 
5 | COC(=O)N[C@H](C(=O)N1CC(F)(F)C[C@H]1c1ncc(-c2ccc(-c3ccc4c(ccc5nc([C@@H]6C[Si](C)(C)CN6C(=O)[C@@H](NC(=O)OC)C(C)C)[nH]c54)c3)cc2)[nH]1)C(C)C [Compound 7] | 172 nM | 0.005 nM | 0.047 nM |  |  |  | 
6 | COC(=O)N[C@H](C(=O)N1C[Si](C)(C)C[C@H]1c1ncc(-c2ccc(-c3ccc4c(ccc5nc([C@@H]6CC(F)(F)CN6C(=O)[C@@H](NC(=O)OC)C(C)C)[nH]c54)c3)cc2)[nH]1)C(C)C [Compound 8] | 65 nM | 0.02 nM | 0.042 nM |  |  |  | 
7 | COC(=O)N[C@H](C(=O)N1CC(F)(F)C[C@H]1c1nc2ccc3cc(-c4ccc5c(ccc6nc([C@@H]7C[Si](C)(C)CN7C(=O)[C@@H](NC(=O)OC)C(C)C)[nH]c65)c4)ccc3c2[nH]1)C(C)C [Compound 9] | 169 nM | 0.007 nM | 0.02 nM |  |  |  | 
8 | COC(=O)N[C@H](C(=O)N1C[C@H](F)C[C@H]1c1ncc(-c2ccc(-c3ccc4c(ccc5nc([C@@H]6C[Si](C)(C)CN6C(=O)[C@@H](NC(=O)OC)C(C)C)[nH]c54)c3)cc2)[nH]1)C(C)C [Compound 10] | 92 nM | 0.009 nM | 0.15 nM |  |  |  | 
9 | COC(=O)N[C@H](C(=O)N1C[C@H](O)C[C@H]1c1ncc(-c2ccc(-c3ccc4c(ccc5nc([C@@H]6C[Si](C)(C)CN6C(=O)[C@@H](NC(=O)OC)C(C)C)[nH]c54)c3)cc2)[nH]1)C(C)C [Compound 11] | 152 nM | 0.008 nM | 0.26 nM |  |  |  | 
10 | COC(=O)N[C@H](C(=O)N1C[Si](C)(C)C[C@H]1c1nc2ccc3cc(-c4ccc(-c5cnc([C@@H]6C[C@H]7C[C@H]7N6C(=O)[C@@H](NC(=O)OC)C(C)C)[nH]5)cc4)ccc3c2[nH]1)C(C)C [Compound 12] |  |  |  | > 100 nM | 0.001 nM | 0.006 nM | 
11 | COC(=O)N[C@H](C(=O)N1CCC[C@H]1c1ncc(-c2ccc(-c3ccc4c(ccc5nc([C@@H]6C[Si](C)(C)CN6C(=O)[C@@H](NC(=O)OC)C6CCOCC6)[nH]c54)c3)cc2)[nH]1)C1CCOCC1 [Compound 18] | > 100 nM | 0.014 nM | 0.023 nM |  |  |  | 2.8 nM
12 | CC[C@H](C)[C@H](NC(=O)OC)C(=O)N1CCC[C@H]1c1ncc(-c2ccc(-c3ccc4c(ccc5nc([C@@H]6C[Si](C)(C)CN6C(=O)[C@@H](NC(=O)OC)[C@@H](C)CC)[nH]c54)c3)cc2)[nH]1 [Compound 22] | 746 nM | 0.03 nM | 0.35 nM |  |  |  | 250 nM
13 | COC(=O)N[C@H](C(=O)N1CCC[C@H]1c1ncc(-c2ccc(-c3ccc4c(ccc5nc([C@@H]6C[Si](C)(C)CN6C(=O)[C@@H](NC(=O)OC)C6CCCCC6)[nH]c54)c3)cc2)[nH]1)C(C)C [Compound 67] | > 1000 nM | 0.02 nM | 0.5 nM |  |  |  | 129 nM
14 | COC(=O)N[C@H](C(=O)N1CCC[C@H]1c1ncc(-c2ccc(-c3ccc4c(ccc5nc([C@@H]6C[Si](C)(C)CN6C(=O)[C@@H](NC(=O)OC)[C@H](O)C(C)C)[nH]c54)c3)cc2)[nH]1)C(C)C [Compound 68] | > 1000 nM | 0.02 nM | 0.21 nM |  |  |  | 143 nM
15 | COC(=O)N[C@H](C(=O)N1CCC[C@H]1c1ncc(-c2ccc(-c3ccc4c(ccc5nc([C@@H]6C[Si](C)(C)CN6C(=O)[C@@H](NC(=O)OC)C6CCOCC6)[nH]c54)c3)cc2)[nH]1)C(C)C [Compound 69] | 118 nM | 0.05 nM | 0.33 nM |  |  |  | 19 nM
16 | COC(=O)N[C@H](C(=O)N1CCC[C@H]1c1ncc(-c2ccc(-c3ccc4c(ccc5nc([C@@H]6C[Si](C)(C)CN6C(=O)[C@@H](NC(=O)OC)C6CC6)[nH]c54)c3)cc2)[nH]1)C(C)C [Compound 70] | > 1000 nM | 0.02 nM | 0.35 nM |  |  |  | 162 nM
17 | COC(=O)N[C@H](C(=O)N1CCC[C@H]1c1ncc(-c2ccc(-c3ccc4c(ccc5nc([C@@H]6C[Si](C)(C)CN6C(=O)C6(NC(=O)OC)CCC6)[nH]c54)c3)cc2)[nH]1)C(C)C [Compound 71] | 288 nM | 0.03 nM | 10 nM |  |  |  | 205 nM
18 | COC(=O)N[C@@H](CC(C)(C)C)C(=O)N1C[Si](C)(C)C[C@H]1c1nc2ccc3cc(-c4ccc(-c5cnc([C@@H]6CCCN6C(=O)[C@@H](NC(=O)OC)C(C)C)[nH]5)cc4)ccc3c2[nH]1 [Compound 72] | 130 nM | 0.02 nM | 0.18 nM |  |  |  | 114 nM
19 | COC(=O)N[C@@H](CN(C)C)C(=O)N1C[Si](C)(C)C[C@H]1c1nc2ccc3cc(-c4ccc(-c5cnc([C@@H]6CCCN6C(=O)[C@@H](NC(=O)OC)C(C)C)[nH]5)cc4)ccc3c2[nH]1 [Compound 73] | > 1000 nM | 0.05 nM | 0.19 nM |  |  |  | 110 nM
20 | COC(=O)N[C@H](C(=O)N1CCC[C@H]1c1ncc(-c2ccc(-c3ccc4c(ccc5nc([C@@H]6C[Si](C)(C)CN6C(=O)[C@H](NC(=O)OC)C(C)(C)OC)[nH]c54)c3)cc2)[nH]1)C(C)C [Compound 74] | > 1000 nM | 0.03 nM | 1.3 nM |  |  |  | 380 nM
21 | COC(=O)NC(Cc1cccs1)C(=O)N1C[Si](C)(C)C[C@H]1c1nc2ccc3cc(-c4ccc(-c5cnc([C@@H]6CCCN6C(=O)[C@@H](NC(=O)OC)C(C)C)[nH]5)cc4)ccc3c2[nH]1 (stereo partly drawn) [Compound 75] | > 1000 nM | 0.04 nM | 3.4 nM |  |  |  | 425 nM
22 | COC(=O)N[C@@H](CSC)C(=O)N1C[Si](C)(C)C[C@H]1c1nc2ccc3cc(-c4ccc(-c5cnc([C@@H]6CCCN6C(=O)[C@@H](NC(=O)OC)C(C)C)[nH]5)cc4)ccc3c2[nH]1 [Compound 76] | 984 nM | 0.03 nM | 0.25 nM |  |  |  | 108 nM
23 | COC(=O)N[C@H](C(=O)N1CCC[C@H]1c1ncc(-c2ccc3cc(-c4ccc5c(ccc6nc([C@@H]7C[Si](C)(C)CN7C(=O)[C@@H](NC(=O)OC)C7CCOCC7)[nH]c65)c4)ccc3c2)[nH]1)C1CCOCC1 [Compound 113] |  | > 1 nM | 0.026 nM |  |  |  | 97 nM

Reference: US20150057246A1, “SILYL-CONTAINING HETEROCYCLIC COMPOUNDS AND METHODS OF USE THEREOF FOR THE TREATMENT OF VIRAL DISEASES” (priority 2012, published 2015)
